# Measured values from article PMC4008261, “Rewiring of regenerated axons by combining treadmill training with semaphorin3A inhibition” (Molecular Brain, 2014).
# Key:
# Experiment in all cases: Kinase inhibition test
# Type in all cases: biochemical
# CDK5/p35 = CDK5/p35 (Homo sapiens, UniProt Q00535)
# Source text: (§1) Table 2 Pharmacological profile of SM-345431 (part 2) | column: IC50 (μm)
# CaMKII = target: CaMKII
# Source text: as §1
# EGFR = EGFR (Homo sapiens, UniProt P00533)
# Source text: as §1
# EphA2 = EphA2 (Homo sapiens, UniProt P29317)
# Source text: as §1
# EphA4 = EphA4 (Homo sapiens, UniProt P54764)
# Source text: as §1
# EphB2 = EphB2 (Homo sapiens, UniProt P29323)
# Chain of EphB2 (P29323 19-1055, species assumed): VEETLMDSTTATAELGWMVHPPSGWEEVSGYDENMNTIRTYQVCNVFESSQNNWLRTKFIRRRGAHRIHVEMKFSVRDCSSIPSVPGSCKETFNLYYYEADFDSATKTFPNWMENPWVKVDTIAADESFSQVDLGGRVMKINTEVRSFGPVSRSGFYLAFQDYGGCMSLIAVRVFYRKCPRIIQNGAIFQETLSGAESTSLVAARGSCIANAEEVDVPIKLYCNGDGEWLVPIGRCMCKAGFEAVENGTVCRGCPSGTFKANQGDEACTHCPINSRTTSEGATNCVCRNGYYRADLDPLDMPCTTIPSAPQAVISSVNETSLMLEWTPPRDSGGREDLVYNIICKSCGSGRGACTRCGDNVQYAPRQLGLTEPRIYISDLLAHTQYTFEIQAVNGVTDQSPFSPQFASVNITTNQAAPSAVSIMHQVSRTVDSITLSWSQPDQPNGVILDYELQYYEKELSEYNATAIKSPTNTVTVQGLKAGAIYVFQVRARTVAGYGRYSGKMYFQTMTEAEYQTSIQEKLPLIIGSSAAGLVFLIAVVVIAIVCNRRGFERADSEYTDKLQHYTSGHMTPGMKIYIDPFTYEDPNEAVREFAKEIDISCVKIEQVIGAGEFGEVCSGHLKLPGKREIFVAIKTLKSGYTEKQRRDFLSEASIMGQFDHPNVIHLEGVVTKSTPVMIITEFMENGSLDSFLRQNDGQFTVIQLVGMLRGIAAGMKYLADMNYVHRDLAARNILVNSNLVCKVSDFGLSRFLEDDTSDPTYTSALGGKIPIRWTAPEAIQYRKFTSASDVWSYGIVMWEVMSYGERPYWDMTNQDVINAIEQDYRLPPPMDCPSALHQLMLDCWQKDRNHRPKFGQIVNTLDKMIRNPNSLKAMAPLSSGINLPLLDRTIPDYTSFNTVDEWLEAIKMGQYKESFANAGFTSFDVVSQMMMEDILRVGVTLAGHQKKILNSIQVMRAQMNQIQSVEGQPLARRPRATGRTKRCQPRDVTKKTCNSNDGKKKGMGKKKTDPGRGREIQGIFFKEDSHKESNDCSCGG
# Source text: as §1
# EphB4 = EphB4 (Homo sapiens, UniProt P54760)
# Chain of EphB4 (P54760 16-987, species assumed): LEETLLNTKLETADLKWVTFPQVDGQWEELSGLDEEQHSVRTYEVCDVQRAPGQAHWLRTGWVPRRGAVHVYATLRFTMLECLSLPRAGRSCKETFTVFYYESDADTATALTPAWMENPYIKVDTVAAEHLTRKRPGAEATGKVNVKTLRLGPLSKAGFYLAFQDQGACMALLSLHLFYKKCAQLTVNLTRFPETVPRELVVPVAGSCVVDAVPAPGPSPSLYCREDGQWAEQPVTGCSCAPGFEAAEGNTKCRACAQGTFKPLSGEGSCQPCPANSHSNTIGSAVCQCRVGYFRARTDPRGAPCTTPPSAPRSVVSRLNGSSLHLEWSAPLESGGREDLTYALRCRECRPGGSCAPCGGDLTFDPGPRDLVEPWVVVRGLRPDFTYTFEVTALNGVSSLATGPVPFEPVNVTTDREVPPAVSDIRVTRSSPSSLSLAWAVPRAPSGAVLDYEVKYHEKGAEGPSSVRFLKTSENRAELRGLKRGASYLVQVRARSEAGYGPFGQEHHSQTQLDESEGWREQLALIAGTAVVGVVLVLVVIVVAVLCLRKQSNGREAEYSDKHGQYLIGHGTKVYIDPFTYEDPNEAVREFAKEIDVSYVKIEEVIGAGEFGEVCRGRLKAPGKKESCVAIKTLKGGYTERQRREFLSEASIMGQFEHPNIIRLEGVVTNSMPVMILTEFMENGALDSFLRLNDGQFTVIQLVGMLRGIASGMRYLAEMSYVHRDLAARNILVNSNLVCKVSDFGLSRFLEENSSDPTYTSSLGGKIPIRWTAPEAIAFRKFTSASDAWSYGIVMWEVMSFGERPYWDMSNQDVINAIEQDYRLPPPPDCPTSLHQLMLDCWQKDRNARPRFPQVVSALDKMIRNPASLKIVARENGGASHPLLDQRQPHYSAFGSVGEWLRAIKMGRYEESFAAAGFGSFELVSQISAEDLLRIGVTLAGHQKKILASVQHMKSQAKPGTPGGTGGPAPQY
# Source text: as §1
# FGFR1 = FGFR1 (Homo sapiens, UniProt P11362)
# Source text: as §1
# FGFR2 = FGFR2 (Homo sapiens, UniProt P21802)
# Source text: as §1
# FGFR4 = FGFR4 (Homo sapiens, UniProt P22455)
# Chain of FGFR4 (P22455 22-802, species assumed): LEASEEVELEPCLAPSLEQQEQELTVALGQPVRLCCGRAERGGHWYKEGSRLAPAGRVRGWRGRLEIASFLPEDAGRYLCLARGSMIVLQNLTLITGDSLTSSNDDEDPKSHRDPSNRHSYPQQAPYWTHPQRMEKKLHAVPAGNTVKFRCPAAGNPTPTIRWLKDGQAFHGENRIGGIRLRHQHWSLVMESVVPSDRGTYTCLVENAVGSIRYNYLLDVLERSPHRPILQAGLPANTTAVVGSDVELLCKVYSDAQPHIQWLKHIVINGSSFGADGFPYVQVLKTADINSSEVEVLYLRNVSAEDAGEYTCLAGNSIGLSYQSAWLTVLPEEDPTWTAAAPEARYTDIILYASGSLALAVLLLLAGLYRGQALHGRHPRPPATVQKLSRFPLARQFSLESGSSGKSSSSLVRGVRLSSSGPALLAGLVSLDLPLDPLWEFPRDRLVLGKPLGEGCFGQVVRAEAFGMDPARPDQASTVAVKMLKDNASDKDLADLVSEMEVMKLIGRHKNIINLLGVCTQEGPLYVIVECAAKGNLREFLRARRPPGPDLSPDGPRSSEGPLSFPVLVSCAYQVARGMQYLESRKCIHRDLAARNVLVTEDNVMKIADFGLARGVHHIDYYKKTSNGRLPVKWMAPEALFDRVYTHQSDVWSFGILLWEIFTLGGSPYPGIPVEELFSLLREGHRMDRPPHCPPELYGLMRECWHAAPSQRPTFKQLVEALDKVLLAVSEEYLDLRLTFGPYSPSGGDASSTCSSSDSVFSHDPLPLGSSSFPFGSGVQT
# Source text: as §1
# Fes = Fes (Homo sapiens, UniProt P07332)
# Source text: as §1
# Flt1 = Flt1 (Homo sapiens, UniProt P17948)
# Chain of Flt1 (P17948 27-1338, species assumed): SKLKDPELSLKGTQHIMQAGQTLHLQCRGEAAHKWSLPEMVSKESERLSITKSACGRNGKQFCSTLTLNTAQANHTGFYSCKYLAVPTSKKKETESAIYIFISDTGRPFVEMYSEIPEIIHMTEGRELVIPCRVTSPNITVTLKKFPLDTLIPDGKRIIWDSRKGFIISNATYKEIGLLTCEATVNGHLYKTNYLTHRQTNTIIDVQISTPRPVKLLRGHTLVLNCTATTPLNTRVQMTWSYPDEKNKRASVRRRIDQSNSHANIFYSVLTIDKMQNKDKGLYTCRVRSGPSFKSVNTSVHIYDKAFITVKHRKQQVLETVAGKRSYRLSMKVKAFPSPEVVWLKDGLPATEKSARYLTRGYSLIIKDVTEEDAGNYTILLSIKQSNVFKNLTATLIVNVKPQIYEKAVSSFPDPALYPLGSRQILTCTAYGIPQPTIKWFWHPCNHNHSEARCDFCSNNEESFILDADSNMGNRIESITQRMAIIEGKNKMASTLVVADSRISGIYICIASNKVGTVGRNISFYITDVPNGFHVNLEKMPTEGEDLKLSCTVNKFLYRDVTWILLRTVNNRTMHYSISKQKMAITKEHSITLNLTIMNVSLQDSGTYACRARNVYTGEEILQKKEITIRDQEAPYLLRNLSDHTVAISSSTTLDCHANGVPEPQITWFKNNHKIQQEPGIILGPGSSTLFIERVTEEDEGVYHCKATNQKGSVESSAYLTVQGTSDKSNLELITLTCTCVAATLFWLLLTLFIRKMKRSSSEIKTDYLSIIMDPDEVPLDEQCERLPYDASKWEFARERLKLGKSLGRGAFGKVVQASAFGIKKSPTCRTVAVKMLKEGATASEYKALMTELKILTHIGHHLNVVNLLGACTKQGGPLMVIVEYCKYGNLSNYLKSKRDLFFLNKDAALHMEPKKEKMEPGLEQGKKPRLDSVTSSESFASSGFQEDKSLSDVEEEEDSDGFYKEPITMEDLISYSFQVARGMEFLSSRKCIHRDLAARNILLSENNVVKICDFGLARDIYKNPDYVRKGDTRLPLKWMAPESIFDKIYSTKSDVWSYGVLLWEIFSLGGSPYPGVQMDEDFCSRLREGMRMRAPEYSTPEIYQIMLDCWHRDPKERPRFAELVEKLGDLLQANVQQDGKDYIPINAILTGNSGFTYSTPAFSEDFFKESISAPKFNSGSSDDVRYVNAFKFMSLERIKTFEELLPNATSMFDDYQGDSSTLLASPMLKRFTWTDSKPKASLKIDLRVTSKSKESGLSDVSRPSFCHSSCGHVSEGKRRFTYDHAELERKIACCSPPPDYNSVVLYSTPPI
# Source text: as §1
# Flt3 = Flt3 (Homo sapiens, UniProt P36888)
# Source text: as §1
# Fyn = Fyn (Homo sapiens, UniProt P06241)
# Chain of Fyn (P06241 whole entry, species assumed): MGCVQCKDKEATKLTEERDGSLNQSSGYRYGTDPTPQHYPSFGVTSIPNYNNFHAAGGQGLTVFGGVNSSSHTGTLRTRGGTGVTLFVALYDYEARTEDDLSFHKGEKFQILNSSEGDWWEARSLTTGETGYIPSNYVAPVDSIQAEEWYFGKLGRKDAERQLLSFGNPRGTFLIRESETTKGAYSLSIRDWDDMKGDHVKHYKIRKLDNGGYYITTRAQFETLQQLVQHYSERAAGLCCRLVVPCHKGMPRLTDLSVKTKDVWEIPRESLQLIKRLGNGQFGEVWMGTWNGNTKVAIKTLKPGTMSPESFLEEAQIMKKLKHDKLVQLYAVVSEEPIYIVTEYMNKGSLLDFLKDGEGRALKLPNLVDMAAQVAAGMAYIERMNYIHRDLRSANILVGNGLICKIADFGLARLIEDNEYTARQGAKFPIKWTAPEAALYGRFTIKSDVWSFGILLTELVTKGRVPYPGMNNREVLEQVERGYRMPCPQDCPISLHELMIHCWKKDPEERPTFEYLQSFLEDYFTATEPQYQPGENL
# Source text: as §1
# GSK3β = GSK3β (Homo sapiens, UniProt P49841)
# Source text: as §1
# IGF-1R = IGF-1R (Homo sapiens, UniProt P08069)
# Source text: as §1
# JAK3 = JAK3 (Homo sapiens, UniProt P52333)
# Source text: as §1
# KDR = KDR (Homo sapiens, UniProt P35968)
# Source text: as §1
# MAPK2 = MAPK2 (Homo sapiens, UniProt P28482)
# Source text: as §1
# MEK1 = MEK1 (Homo sapiens, UniProt Q02750)
# Source text: as §1
# MEK4 = MEK4 (Homo sapiens, UniProt P45985)
# Chain of MEK4 (P45985 whole entry, species assumed): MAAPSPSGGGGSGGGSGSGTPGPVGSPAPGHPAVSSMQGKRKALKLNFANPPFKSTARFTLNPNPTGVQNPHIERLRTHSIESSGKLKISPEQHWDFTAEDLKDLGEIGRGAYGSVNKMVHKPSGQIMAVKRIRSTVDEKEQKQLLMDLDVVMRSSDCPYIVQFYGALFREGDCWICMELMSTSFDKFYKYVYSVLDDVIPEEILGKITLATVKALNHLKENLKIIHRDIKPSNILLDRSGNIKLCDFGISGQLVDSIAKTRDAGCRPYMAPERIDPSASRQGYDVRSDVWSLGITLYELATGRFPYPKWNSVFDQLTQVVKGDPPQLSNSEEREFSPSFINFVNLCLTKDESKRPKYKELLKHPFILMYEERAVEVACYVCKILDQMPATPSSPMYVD
# Source text: as §1
# MKK6 = MKK6 (Homo sapiens, UniProt P52564)
# Source text: as §1
# PAK2 = PAK2 (Homo sapiens, UniProt Q13177)
# Source text: as §1
# PI 3-Kγ = PI 3-Kγ (Homo sapiens, UniProt P48736)
# Source text: as §1
# PKBα = PKBα (Homo sapiens, UniProt P31749)
# Source text: as §1
# PKCγ = PKCγ (Homo sapiens, UniProt P05129)
# Source text: as §1
# ROCK-I = ROCK-I (Homo sapiens, UniProt Q13464)
# Source text: as §1
# SAPK2a = SAPK2a (Homo sapiens, UniProt Q16539)
# Source text: as §1
# TrkA = TrkA (Homo sapiens, UniProt P04629)
# Source text: as §1
# cSRC = cSRC (Homo sapiens, UniProt P12931)
# Source text: as §1
smiles,measurement,setting,value
"CC(=O)c1cc2c(=O)c3c(C(=O)O)c(O)c(O)cc3oc2c(C(C)=O)c1-c1coc2cc(O)c(O)c(C(=O)O)c2c1=O [SM-345431, Vinaxanthone]",IC50,CDK5/p35,> 10 µM
same,IC50,CaMKII,> 10 µM
same,IC50,EGFR,0.9 µM
same,IC50,EphA2,> 10 µM
same,IC50,EphA4,0.8 µM
same,IC50,EphB2,0.68 µM
same,IC50,EphB4,> 10 µM
same,IC50,FGFR1,> 10 µM
same,IC50,FGFR2,> 10 µM
same,IC50,FGFR4,0.64 µM
same,IC50,Fes,> 10 µM
same,IC50,Flt1,> 10 µM
same,IC50,Flt3,> 10 µM
same,IC50,Fyn,> 10 µM
same,IC50,GSK3β,> 10 µM
same,IC50,IGF-1R,> 10 µM
same,IC50,JAK3,> 10 µM
same,IC50,KDR,> 10 µM
same,IC50,MAPK2,> 10 µM
same,IC50,MEK1,> 10 µM
same,IC50,MEK4,> 10 µM
same,IC50,MKK6,> 10 µM
same,IC50,PAK2,> 10 µM
same,IC50,PI 3-Kγ,> 10 µM
same,IC50,PKBα,> 10 µM
same,IC50,PKCγ,> 10 µM
same,IC50,ROCK-I,> 10 µM
same,IC50,SAPK2a,> 10 µM
same,IC50,TrkA,> 10 µM
same,IC50,cSRC,> 10 µM
